Source: ChEMBL document CHEMBL4420060, “Combinatorial therapies for the treatment of neoplasias using the opioid growth factor receptor” (2013)
Activity calls are given as the source filed them. The rule behind the calls is not given here.

Assays:
MIA PaCa-2 = experiment: Growth inhibition of human MIAPaCa2 cells assessed as decrease in cell number at 1 uM incubated for 96 hrs by MTS assay relative to control; type: functional
UMSCC1 [1] = experiment: Growth inhibition of human UM-SCC-1 cells assessed as decrease in cell number at 1 uM by MTS assay relative to control; type: functional, cell-based
UMSCC1 [2] = experiment: Antitumor activity against human UM-SCC-1 cells xenografted in nu/nu mouse assessed as reduction in tumor at 8 mg/kg dosed every other day and co-treated with 10 mg/kg/day OGF measured on 4th day of measurable tumors relative to control; type: functional; design: scale not given: the % may be the effect or the level left
UMSCC1 [3] = experiment: Induction of apoptosis in human UM-SCC-1 cells assessed as increase in caspse-3 levels at 0.01 uM in presence of 1 uM OGF incubated for 6 days by flow cytometry; type: functional
[4] = Toxicity in mouse xenografted with human UM-SCC-1 cells assessed as effect on large intestine/cecum/small bowel at 8 mg/kg dosed every other day by histological analysis; type: organism-based; conditions: in vivo
UMSCC1 [5] = experiment: Growth inhibition of human UM-SCC-1 cells assessed as decrease in cell number at 0.01 uM in presence of 1 uM OGF incubated for 72 hrs by MTS assay relative to control; type: functional
UMSCC1 [6] = experiment: Growth inhibition of human UM-SCC-1 cells assessed as decrease in cell number at 0.01 uM in presence of 1 uM OGF incubated for 96 hrs by MTS assay relative to control; type: functional
UMSCC1 [7] = experiment: Antitumor activity against human UM-SCC-1 cells xenografted in nu/nu mouse assessed as reduction in tumor at 8 mg/kg dosed every other day and co-treated with at 10 mg/kg/day OGF measured on 16th to 20th day of measurable tumors relative to control; type: functional, organism-based
UMSCC1 [8] = experiment: Antitumor activity against human UM-SCC-1 cells xenografted in nu/nu mouse assessed as time duration for delay in visible tumor development at 8 mg/kg dosed every other day and co-treated with 10 mg/kg/day OGF relative to control; type: functional
UMSCC1 [9] = experiment: Inhibition of DNA synthesis in human UM-SCC-1 cells assessed as reduction in BrdU incorporation at 0.01 uM in presence of 1 uM OGF incubated for 72 hrs by fluorescence microscopy; type: functional
UMSCC1 [10] = experiment: Growth inhibition of human UM-SCC-1 cells assessed as decrease in cell number at 0.01 uM in presence of 1 uM OGF incubated for 48 hrs followed by compound wash out by 50% replacement of media and measured after 48 hrs by MTS assay relative to control; type: functional, cell-based
[11] = Toxicity in mouse xenografted with human UM-SCC-1 cells assessed as induction of stool hardening at 8 mg/kg dosed every other day by histological analysis; type: organism-based; conditions: in vivo
UMSCC1 [12] = experiment: Growth inhibition of human UM-SCC-1 cells assessed as decrease in cell number at 0.1 uM incubated for 72 hrs in presence of 1 uM OGF by MTT assay relative to control; type: functional
UMSCC1 [13] = experiment: Antitumor activity against human UM-SCC-1 cells xenografted in nu/nu mouse assessed as reduction in tumor measured on 22nd to 36th day of measurable tumors at 8 mg/kg dosed every other day relative to control; type: functional, organism-based
UMSCC1 [14] = experiment: Antitumor activity against human UM-SCC-1 cells xenografted in nu/nu mouse assessed as reduction in tumor at 8 mg/kg dosed every other day and co-treated with 10 mg/kg/day OGF measured on 22nd to 36th day of measurable tumors relative to control; type: functional, organism-based
UMSCC1 [15] = experiment: Growth inhibition of human UM-SCC-1 cells assessed as decrease in cell number at 0.01 uM in presence of 1 uM OGF and 1 uM opioid antagonist naloxone incubated for 24 to 96 hrs by MTS assay relative to control; type: functional
UMSCC1 [16] = experiment: Growth inhibition of human UM-SCC-1 cells assessed as decrease in cell number at 0.01 uM incubated for 48 hrs followed by compound wash out by 50% replacement of media and measured after 48 hrs by MTS assay relative to control; type: functional, cell-based
UMSCC1 [17] = experiment: Antitumor activity against human UM-SCC-1 cells xenografted in nu/nu mouse assessed as reduction in tumor at 8 mg/kg dosed every other day and co-treated with 10 mg/kg/day OGF measured on 6th day of measurable tumors relative to control; type: functional; design: scale not given: the % may be the effect or the level left
UMSCC1 [18] = experiment: Induction of apoptosis in human UM-SCC-1 cells assessed as increase in caspse-3 levels at 0.01 uM in presence of 1 uM OGF incubated for 1 to 3 days by flow cytometry; type: functional
UMSCC1 [19] = experiment: Induction of apoptosis in human UM-SCC-1 cells assessed as increase in caspse-3 levels at 0.01 uM incubated for 6 days by flow cytometry; type: functional
UMSCC1 [20] = experiment: Antitumor activity against human UM-SCC-1 cells xenografted in nu/nu mouse assessed as mouse mortality at 8 mg/kg dosed every other day measured on day 19 relative to control; type: functional, organism-based
UMSCC1 [21] = experiment: Growth inhibition of human UM-SCC-1 cells assessed as decrease in cell number at 0.01 uM incubated for 96 hrs in presence of 1 uM OGF by MTT assay relative to control; type: functional
CAL-27 [22] = experiment: Growth inhibition of human CAL27 cells assessed as decrease in cell number at 0.0001 uM with drug and media changed daily in presence of 1 uM OGF incubated for 48 hrs by MTS assay relative to control; type: functional
CAL-27 [23] = experiment: Growth inhibition of human CAL27 cells assessed as decrease in cell number at 0.0001 uM with drug and media changed daily incubated for 48 hrs by MTS assay relative to control; type: functional; conditions: CAL-27, 48 h, read-out: GI
UMSCC1 [24] = experiment: Induction of apoptosis in human UM-SCC-1 cells assessed as increase in caspse-3 levels at 0.01 uM incubated for 1 day by flow cytometry; type: functional, cell-based
UMSCC1 [25] = experiment: Growth inhibition of human UM-SCC-1 cells assessed as decrease in cell number at 0.01 uM incubated for 72 hrs in presence of 1 uM OGF by MTT assay relative to control; type: functional
[26] = Toxicity in mouse xenografted with human UM-SCC-1 cells assessed as distension of abdomens with associated megacolon at 8 mg/kg dosed every other day by histological analysis; type: organism-based; conditions: in vivo
UMSCC1 [27] = experiment: Antitumor activity against human UM-SCC-1 cells xenografted in nu/nu mouse assessed as latency time for measurable (62.5 mm3) tumors at 8 mg/kg dosed every other day and co-treated with 10 mg/kg/day OGF (Rvb <=2 weeks); type: functional
UMSCC1 [28] = experiment: Antitumor activity against human UM-SCC-1 cells xenografted in nu/nu mouse assessed as latency time for measurable (62.5 mm3) tumors at 8 mg/kg dosed every other day (Rvb <=2 weeks); type: functional
UMSCC1 [29] = experiment: Antitumor activity against human UM-SCC-1 cells xenografted in nu/nu mouse assessed as mouse mortality at 8 mg/kg dosed every other day measured on day 40 co-treated with 10 mg/kg/day OGF relative to control; type: functional, organism-based
UMSCC1 [30] = experiment: Antitumor activity against human UM-SCC-1 cells xenografted in nu/nu mouse assessed as reduction in tumor measured on 6th day of measurable tumors at 8 mg/kg dosed every other day relative to control; type: functional; design: scale not given: the % may be the effect or the level left
UMSCC1 [31] = experiment: Growth inhibition of human UM-SCC-1 cells assessed as decrease in cell number at 0.1 uM incubated for 96 hrs in presence of 1 uM OGF by MTT assay relative to control; type: functional
UMSCC1 [32] = experiment: Growth inhibition of human UM-SCC-1 cells assessed as decrease in cell number at 0.01 uM in presence of 1 uM OGF incubated for 48 hrs by MTS assay relative to control; type: functional

C[C@@H](NC(=O)[C@@H](N)Cc1ccc(O)cc1)C(=O)NCC(=O)N(C)[C@@H](Cc1ccccc1)C(=O)NCCO
growth inhibition (GI) (MIA PaCa-2): inactive | growth inhibition (GI) (UMSCC1 [1]): inactive

CC1(C)SSC(C)(C)[C@@H](NC(=O)[C@@H](N)Cc2ccc(O)cc2)C(=O)NCC(=O)N[C@@H](Cc2ccccc2)C(=O)N[C@H]1C(=O)O
growth inhibition (GI) (MIA PaCa-2): inactive | growth inhibition (GI) (UMSCC1 [1]): inactive

NC(=O)[C@H](Cc1ccccc1)NC(=O)[C@H](Cc1c[nH]c2ccccc12)NC(=O)[C@@H]1CCCN1C(=O)[C@@H](N)Cc1ccc(O)cc1
growth inhibition (GI) (MIA PaCa-2): inactive | growth inhibition (GI) (UMSCC1 [1]): inactive

CC(=O)O[C@H]1C(=O)[C@@]2(C)[C@H]([C@H](OC(=O)c3ccccc3)[C@]3(O)C[C@H](OC(=O)[C@H](O)[C@@H](NC(=O)c4ccccc4)c4ccccc4)C(C)=C1C3(C)C)[C@]1(OC(C)=O)CO[C@@H]1C[C@@H]2O [PACLITAXEL]
Activity (UMSCC1 [2]): 29% | fold change (FC) (UMSCC1 [3]): 13.9 | Activity [4]: Toxic | growth inhibition (GI) (UMSCC1 [5]): 63% | growth inhibition (GI) (UMSCC1 [6]): 69% | Activity (UMSCC1 [7]): Active | Time (UMSCC1 [8]): 4 days | inhibition (INH) (UMSCC1 [9]): 16% | growth inhibition (GI) (UMSCC1 [10]): Active | Activity [11]: Toxic | growth inhibition (GI) (UMSCC1 [12]): 68.4% | Activity (UMSCC1 [13]): inactive | Activity (UMSCC1 [14]): Active | growth inhibition (GI) (UMSCC1 [15]): 8.8 - 26% | growth inhibition (GI) (UMSCC1 [16]): Active | Activity (UMSCC1 [17]): 29 - 33% | fold change (FC) (UMSCC1 [18]): 5.6 | fold change (FC) (UMSCC1 [19]): 2.7 | Activity (UMSCC1 [20]): inactive | growth inhibition (GI) (UMSCC1 [21]): 36.3% | growth inhibition (GI) (CAL-27 [22]): 61% | inhibition of growth at 0.0001 µM (CAL-27 [23]): 22 to 35% | Activity (UMSCC1 [24]): inactive | growth inhibition (GI) (UMSCC1 [25]): 30.6% | Activity [26]: Toxic | Time (UMSCC1 [27]): 17 days | Time (UMSCC1 [28]): <=12 day | Activity (UMSCC1 [29]): Active | Activity (UMSCC1 [30]): 29 - 33% | growth inhibition (GI) (UMSCC1 [31]): 78.4% | growth inhibition (GI) (UMSCC1 [32]): 48%
